# Data taken from patent publication US8178506B2, “Oligomeric compounds and compositions for use in modulation of small non-coding RNAs” (Regulus Therapeutics Inc., priority 2003, dated 2012).
# In the oligonucleotide strings, read from the 5' end, every base follows the letter of its sugar. An asterisk marks phosphorothioate; unmarked linkages are phosphodiester. Other units and linkages are bracketed, terminal groups are in braces. A string of capitals states the bases alone. e = 2'-O-(2-methoxyethyl) (MOE); [5mC] = 5-methylcytosine; d = 2'-deoxy (DNA)
# Tests used:
# mir-21 miRNA = test: pGL3-mir-21 sensor luciferase assay in HeLa cells; assay type: cell-based, human; settings: Table 50, pGL3-mir-21 sensor-expressing HeLa cells, normalized to pRL-CMV
# Description: In order to assess the ability of miRNAs to bind predicted miRNA binding sites and regulate the expression of the luciferase reporter, in some embodiments, expression systems based on the pGL3-Control (Promega Corp., Madison Wis.) reporter vector and comprising either a mir-15a, mir-21, or a mir-23b miRNA binding site were developed and used in transient transfections of HeLa cells to determine whether the endogenous mir-15a, mir-21, or mir-23b miRNAs, respectively, could repress luciferase reporter gene expression.
# The pGL3-mir-21 sensor plasmid was created by cloning the sequence ([…]; SEQ ID NO: 335), representing a sequence complementary to the mir-21 miRNA, into the Xba site of the pGL3-Control plasmid, placing the potential miRNA-binding site in the 3′UTR of the luciferase reporter. This reporter plasmid was used to transfect HeLa cells and it was observed that the endogenous mir-21 miRNA was able to inhibit luciferase expression from the pGL3-mir-21 sensor plasmid. Thus, to further evaluate the ability of the mir-21 miRNA to bind this target site encoded by the pGL3-mir-21 sensor plasmid, and to assess the ability of oligomeric compounds to interfere with mir-21-mediated silencing, pGL3-mir-21 sensor-expressing HeLa cells were treated with varying concentrations (10 nM or 50 nM) of the following oligomeric compounds: ISIS Number 327917 (SEQ ID NO: 335), a phosphorothioate uniform 2′-MOE oligomeric compound; ISIS Number 338697 ([…]; herein incorporated as SEQ ID NO: 524), a uniform 2′-MOE oligomeric compound targeting the mir-21 pri-miRNA molecule; and ISIS Number 328415 (SEQ ID NO: 524), a 2′-MOE 5-10-5 gapmer oligomeric compound targeting the mir-21 pri-miRNA. The uniform 2′-MOE phosphorothioate oligomeric compound ISIS Number 327901 (SEQ ID NO: 319) targeting an unrelated miRNA (mir-143) was used as a negative control. The data are the average of three trials and are presented in Table 44 as percent untreated control (luciferase plasmid only, not treated with oligomeric compound) luciferase expression, normalized to pRL-CMV levels.
# In one embodiment, the oligomeric compounds ISIS Number 327917 (SEQ ID NO: 335), the phosphorothioate uniform 2′-MOE targeting mature mir-21; ISIS Number 358768 (SEQ ID NO: 918), the uniform 2′-MOE targeting the mir-21 pri-miRNA which stimulated the largest increase in pri-miRNA expression levels by real time quantitative RT-PCR; and ISIS Number 345382 (SEQ ID NO: 335), the 5-10-7 phosphorothioate 2′-MOE gapmer targeting mature mir-21 were selected for dose response studies in HeLa cells using the luciferase reporter system described in Example 27. ISIS Number 342683 (SEQ ID NO: 790), representing the scrambled nucleotide sequence of an unrelated PTP1B antisense oligonucleotide, was used as a negative control. HeLa cells expressing the pGL3-mir-21 sensor plasmid (described in Example 27) were treated with 1.9, 5.5, 16.7, and 50 nM of these oligomeric compounds, to assess the ability of oligomeric compounds to interfere with endogenous mir-21-mediated silencing of the pGL3-mir-21 sensor plasmid. The data are presented in Table 50 as percent untreated control (luciferase plasmid only, not treated with oligomeric compound) luciferase expression, normalized to pRL-CMV levels.
# mir-21 pri-miRNA = mir-21 pri-miRNA expression in HeLa cells (real-time RT-PCR); assay type: cell-based, human; settings: HeLa cells, 100 nM, real-time RT-PCR
# Procedure: In one embodiment, the expression of mir-21 (noted to be expressed at high levels in HeLa cells) was assessed in cells treated with oligomeric compounds. Using the transfection methods previously described, HeLa cells were treated with 100 nM of the uniform 2′-MOE oligomeric compound ISIS Number 327917 (SEQ ID NO: 335) targeting the mir-21 mature miRNA. Total RNA was isolated by lysing cells in 1 mL TRIZOL™ (Invitrogen) using the manufacturer's recommended protocols. […] Real-time RT-PCR analysis was also performed on HeLa cells treated with ISIS 327917 using a primer/probe set specific for the mir-21 pri-miRNA molecule [forward primer=ISIS 339332 ([…]; herein incorporated as SEQ ID NO.: 911), reverse primer-ISIS 339333 (TCGACTGGTGTTGCCATGA; herein incorporated as SEQ ID NO.: 912), and probe=ISIS 339334 ([…]; herein incorporated as SEQ ID NO.: 913)]. Total RNA was quantified using RiboGreen™ RNA quantification reagent (Molecular Probes, Inc. Eugene, Oreg.), expression levels observed for the target were normalized to 5.8S rRNA, and values were expressed relative to an untreated control (UTC).
# Using the real-time RT-PCR methods, the expression levels of the mir-21 pri-miRNA were compared in HeLa cells treated with this nested series of uniform 2′-MOE oligomeric compounds, targeting and spanning the entire length of the mir-21 pri-miRNA. ISIS Number 358768 (SEQ ID NO: 918) targets a region flanking the predicted 5′ Drosha cleavage site in the mir-21 pri-miRNA. ISIS Number 358777 (SEQ ID NO: 927) targets a region spanning the 3′ Drosha cleavage site in the mir-21 pri-miRNA. ISIS 358779 (SEQ ID NO: 929) targets a region flanking the predicted 3′ Drosha cleavage site in the mir-21 pri-miRNA. Additionally, oligomeric compounds ISIS 327917 (SEQ ID NO: 335), a uniform 2′-MOE compound targeting the mature mir-21 miRNA, and ISIS 345382 ([…]; SEQ ID NO: 335), a 5-10-7 phosphorothioate 2′-MOE gapmer targeting mir-21, were tested for comparison. Oligomeric compound ISIS 327863 ([…]; herein incorporated as SEQ ID NO: 936), a phosphorothioate 5-10-52′-MOE gapmer, was used as scrambled control. […] Total RNA was isolated by lysing cells in 1 mL TRIZOL™ (Invitrogen) using the manufacturer's recommended protocols. real-time RT-PCR analysis was performed using the primer/probe set specific for the mir-21 pri-miRNA molecule [forward primer=ISIS 339332 (SEQ ID NO.: 911), reverse primer-ISIS 339333 (SEQ ID NO.: 912), and probe=ISIS 339334 (SEQ ID NO.: 913)]. Total RNA was quantified using RiboGreen™ RNA quantification reagent (Molecular Probes, Inc. Eugene, Oreg.), expression levels observed for each target were normalized to 5.8S rRNA, and values were expressed relative to the untreated control (UTC). Effects on expression of the mir-21 pri-miRNA molecule resulting from treatment of HeLa cells with these uniform 2′-MOE oligomeric compounds is expressed as a percentage of RNA levels in untreated control cells.
# IL-12 mRNA = IL-12 mRNA in LPS-activated primary murine macrophages; assay type: cell-based, mouse; settings: LPS, average of 3 treatments
# IL-6 mRNA = IL-6 mRNA in LPS-activated primary murine macrophages; assay type: cell-based, mouse; settings: average of 3 treatments
# Procedure: To investigate the role of miRNAs in the immune response, oligomeric compounds of the present invention targeting miRNAs were tested for their effects upon lipopolysaccharide (LPS)-activated primary murine macrophages. Macrophages participate in the immune response, for example, in the recognition and phagocytosis of microorganisms, including bacteria. Interferon-gamma (IFN-gamma) released by helper T cells is one type of signal required for macrophage activation, and LPS can serve as an additional stimulus. LPS is a component of the gram-negative bacterial cell wall and acts as an agonist for toll-like receptor 4 (TLR4), the primary LPS receptor expressed by macrophages. The proinflammatory cytokines interleukin-12 (IL-12) and interleukin-6 (IL-6) are induced by LPS treatment of macrophages, thus the expression of the mRNAs encoding these cytokines was used to evaluate the response of macrophages to LPS following treatment with oligomeric compounds targeting miRNAs.
# Macrophages were isolated as follows. Female C57B1/6 mice (Charles River Laboratories, Wilmington, Mass.) were injected intraperitoneally with 1 ml 3% thioglycollate broth (Sigma-Aldrich, St. Louis, Mo.), and peritoneal macrophage cells were isolated by peritoneal lavage 4 days later. The cells were plated in 96-well plates at 40,000 cells/well for one hour in serum-free RPMI adjusted to contain 10 mM HEPES (Invitrogen Life Technologies, Carlsbad, Calif.), allowed to adhere, then non-adherent cells were washed away and the media was replaced with RPMI containing 10 mM HEPES, 10% FBS and penicillin/streptomycin (“complete” RPMI; Invitrogen Life Technologies, Carlsbad, Calif.).
# Oligomeric compounds were introduced into the cells using the non-liposomal transfection reagent FuGENE 6 Transfection Reagent (Roche Diagnostics Corp., Indianapolis, Ind.). Oligomeric compound was mixed with FuGENE 6 in 1 mL of serum-free RPMI to achieve a concentration of 10 μL FuGENE per 1000 nM oligomeric compound. The oligomeric compound/FuGENE complex was allowed to form at room temperature for 20 minutes. This mixture was diluted to the desired concentration of oligomeric compound by the addition of the appropriate volume of complete RPMI. The final ratio of FuGENE 6 to oligomeric compound was 1 μL of FuGENE 6 per 100 nM oligomeric compound. A volume of 100 μL of oligomeric compound/FuGENE/RPMI was added to each well of the 96-well plate in which the macrophages were cultured. Each oligomeric compound treatment was repeated in triplicate.
# Following oligomeric compound treatment, cells were stimultated with LPS. Cells were cultured in the presence of the transfection complex for approximately 24 to 28 hours at 37° C. and 5% CO2, after which the medium containing the transfection complex was removed from the cells, and complete RPMI containing 100 ng/mL LPS (Sigma-Aldrich Corp., St. Louis, Mo.) was added to the cells for a period of approximately 24 hours. Control samples included (1) cells receiving no oligomeric compound, stimulated with LPS and (2) cells receiving neither oligomeric compound nor LPS treatment.
# In another embodiment, following oligomeric compound treatment, cells were first activated by IFN-gamma, to amplify the response to LPS. Cells were cultured in the presence of the transfection complex for approximately 24 hours at 37° C. and 5% CO2, at which point the medium containing the transfection complex was removed from the cells, and complete RPMI containing 100 ng/mL recombinant mouse IFN-gamma (R&D Systems, Minneapolis, Minn.) was added to the cells. After the 4 hour treatment with INF-gamma, cells were treated with 100 ng/mL LPS for approximately 24 hours. Control samples included (1) cells receiving no oligomeric compound, stimulated with LPS and (2) cells receiving neither oligomeric compound nor LPS treatment. […]
substance,measurement,setting,value
358768 (eA*eG*eG*eT*eG*eG*eT*eA*e[5mC]*eA*eG*e[5mC]*e[5mC]*eA*eT*eG*eG*eA*eG*eA) [compound 358768],luciferase expression % UTC,mir-21 miRNA; 1.9 nM,103 % UTC
same,luciferase expression % UTC,mir-21 miRNA; 5.5 nM,163 % UTC
same,luciferase expression % UTC,mir-21 miRNA; 16.7 nM,146 % UTC
same,luciferase expression % UTC,mir-21 miRNA; 50 nM,118 % UTC
same,mir-21 pri-miRNA expression % UTC,mir-21 pri-miRNA,987 % UTC
"345382 (TCAACATCAGTCTGATAAGCTA; sugars from the 5' end e5 d10 e7, all phosphorothioate, methylation of C not given here) [compound 345382]",luciferase expression % UTC,mir-21 miRNA; 1.9 nM,101 % UTC
same,luciferase expression % UTC,mir-21 miRNA; 5.5 nM,135 % UTC
same,luciferase expression % UTC,mir-21 miRNA; 16.7 nM,117 % UTC
same,luciferase expression % UTC,mir-21 miRNA; 50 nM,95 % UTC
same,mir-21 pri-miRNA expression % UTC,mir-21 pri-miRNA,119 % UTC
"342683 (antisense CCTTCCCTGAAGGTTCCTCCTT; scrambled control, further chemistry not given here) [compound 342683]","IL-12 mRNA expression, % UTC","IL-12 mRNA; 75 nM, +IFN",92 % UTC
same,"IL-12 mRNA expression, % UTC","IL-12 mRNA; 75 nM, −IFN",121 % UTC
same,"IL-12 mRNA expression, % UTC","IL-12 mRNA; 150 nM, +IFN",76 % UTC
same,"IL-12 mRNA expression, % UTC","IL-12 mRNA; 150 nM, −IFN",165 % UTC
same,"IL-12 mRNA expression, % UTC","IL-12 mRNA; 300 nM, +IFN",65 % UTC
same,"IL-12 mRNA expression, % UTC","IL-12 mRNA; 300 nM, −IFN",147 % UTC
same,"IL-12 mRNA expression, % UTC","IL-12 mRNA; 600 nM, +IFN",64 % UTC
same,"IL-12 mRNA expression, % UTC","IL-12 mRNA; 600 nM, −IFN",130 % UTC
same,luciferase expression % UTC,mir-21 miRNA; 1.9 nM,127 % UTC
same,luciferase expression % UTC,mir-21 miRNA; 5.5 nM,171 % UTC
same,luciferase expression % UTC,mir-21 miRNA; 16.7 nM,104 % UTC
same,luciferase expression % UTC,mir-21 miRNA; 50 nM,108 % UTC
same,"IL-6 mRNA expression, % UTC","IL-6 mRNA; 75 nM, +IFN",115 % UTC
same,"IL-6 mRNA expression, % UTC","IL-6 mRNA; 75 nM, −IFN",135 % UTC
same,"IL-6 mRNA expression, % UTC","IL-6 mRNA; 150 nM, +IFN",86 % UTC
same,"IL-6 mRNA expression, % UTC","IL-6 mRNA; 150 nM, −IFN",161 % UTC
same,"IL-6 mRNA expression, % UTC","IL-6 mRNA; 300 nM, +IFN",110 % UTC
same,"IL-6 mRNA expression, % UTC","IL-6 mRNA; 300 nM, −IFN",156 % UTC
same,"IL-6 mRNA expression, % UTC","IL-6 mRNA; 600 nM, +IFN",149 % UTC
same,"IL-6 mRNA expression, % UTC","IL-6 mRNA; 600 nM, −IFN",311 % UTC
